Experimental data taken from PMC6422671 (British Journal of Clinical Pharmacology, 2019).

Test: Clinical laboratory findings: haematology; data mean (standard deviation)
Format: in vivo, healthy men
From the text: Data are mean (standard deviation).

## C[C@@H](N)c1cc(Cl)ccc1Cn1c(=S)[nH]c(=O)c2[nH]ccc21 [AZD4831]
45 mg fed, 24 h
  Basophils: 0.03 (0.01) 10^9 L^–1
  Eosinophils: 0.19 (0.10) 10^9 L^–1
  Erythrocyte MCH: 30.2 (2.0) pg
  Erythrocyte MCH concentration: 343 (14) g L^–1
  Erythrocyte MCV: 88.0 (5.6) fL
  Erythrocytes: 4.74 (0.15) 10^12 L^–1
  Haematocrit: 0.42 (0.03) ratio
  Haemoglobin: 143 (9) g L^–1
  Leukocytes: 5.51 (0.85) 10^9 L^–1
  Lymphocytes: 1.76 (0.61) 10^9 L^–1
  Monocytes: 0.34 (0.16) 10^9 L^–1
  Neutrophils: 3.11 (0.79) 10^9 L^–1
  Platelets: 227 (50) 10^9 L^–1
  Reticulocytes: 77.4 (5.4) 10^9 L^–1
45 mg fed, 48 h
  Basophils: 0.03 (0.02) 10^9 L^–1
  Eosinophils: 0.20 (0.15) 10^9 L^–1
  Erythrocyte MCH: 30.2 (1.7) pg
  Erythrocyte MCH concentration: 343 (8) g L^–1
  Erythrocyte MCV: 88.2 (5.8) fL
  Erythrocytes: 4.89 (0.11) 10^12 L^–1
  Haematocrit: 0.43 (0.03) ratio
  Haemoglobin: 148 (9) g L^–1
  Leukocytes: 5.93 (1.07) 10^9 L^–1
  Lymphocytes: 1.85 (0.77) 10^9 L^–1
  Monocytes: 0.40 (0.16) 10^9 L^–1
  Neutrophils: 3.35 (1.20) 10^9 L^–1
  Platelets: 233 (51) 10^9 L^–1
  Reticulocytes: 84.5 (7.9) 10^9 L^–1
45 mg fed, follow up
  Basophils: 0.04 (0.01) 10^9 L^–1
  Eosinophils: 0.18 (0.12) 10^9 L^–1
  Erythrocyte MCH: 30.7 (1.0) pg
  Erythrocyte MCH concentration: 347 (11) g L^–1
  Erythrocyte MCV: 88.3 (5.1) fL
  Erythrocytes: 4.72 (0.16) 10^12 L^–1
  Haematocrit: 0.42 (0.04) ratio
  Haemoglobin: 145 (9) g L^–1
  Leukocytes: 6.37 (1.60) 10^9 L^–1
  Lymphocytes: 1.79 (0.37) 10^9 L^–1
  Monocytes: 0.39 (0.12) 10^9 L^–1
  Neutrophils: 3.85 (1.22) 10^9 L^–1
  Platelets: 250 (62) 10^9 L^–1
  Reticulocytes: 82.9 (10.8) 10^9 L^–1
135 mg fasted, 24 h
  Basophils: 0.02 (0.01) 10^9 L^–1
  Eosinophils: 0.11 (0.07) 10^9 L^–1
  Erythrocyte MCH: 31.0 (0.4) pg
  Erythrocyte MCH concentration: 354 (5) g L^–1
  Erythrocyte MCV: 87.5 (1.9) fL
  Erythrocytes: 4.69 (0.26) 10^12 L^–1
  Haematocrit: 0.41 (0.02) ratio
  Haemoglobin: 145 (8) g L^–1
  Leukocytes: 5.11 (1.13) 10^9 L^–1
  Lymphocytes: 1.52 (0.40) 10^9 L^–1
  Monocytes: 0.35 (0.12) 10^9 L^–1
  Neutrophils: 3.00 (0.79) 10^9 L^–1
  Platelets: 200 (25) 10^9 L^–1
  Reticulocytes: 72.4 (19.9) 10^9 L^–1
135 mg fasted, 48 h
  Basophils: 0.03 (0.01) 10^9 L^–1
  Eosinophils: 0.12 (0.07) 10^9 L^–1
  Erythrocyte MCH: 30.9 (0.4) pg
  Erythrocyte MCH concentration: 353 (7) g L^–1
  Erythrocyte MCV: 87.4 (1.6) fL
  Erythrocytes: 4.68 (0.30) 10^12 L^–1
  Haematocrit: 0.41 (0.03) ratio
  Haemoglobin: 144 (9) g L^–1
  Leukocytes: 5.28 (1.23) 10^9 L^–1
  Lymphocytes: 1.66 (0.47) 10^9 L^–1
  Monocytes: 0.37 (0.11) 10^9 L^–1
  Neutrophils: 3.00 (0.83) 10^9 L^–1
  Platelets: 202 (29) 10^9 L^–1
  Reticulocytes: 70.1 (15.1) 10^9 L^–1
135 mg fasted, follow up
  Basophils: 0.03 (0.01) 10^9 L^–1
  Eosinophils: 0.14 (0.09) 10^9 L^–1
  Erythrocyte MCH: 30.8 (0.5) pg
  Erythrocyte MCH concentration: 350 (11) g L^–1
  Erythrocyte MCV: 88.2 (1.7) fL
  Erythrocytes: 4.62 (0.25) 10^12 L^–1
  Haematocrit: 0.41 (0.02) ratio
  Haemoglobin: 143 (9) g L^–1
  Leukocytes: 6.80 (3.32) 10^9 L^–1
  Lymphocytes: 1.51 (0.26) 10^9 L^–1
  Monocytes: 0.48 (0.32) 10^9 L^–1
  Neutrophils: 4.46 (2.99) 10^9 L^–1
  Platelets: 218 (24) 10^9 L^–1
  Reticulocytes: 82.8 (19.3) 10^9 L^–1
405 mg fasted, 24 h
  Basophils: 0.04 (0.01) 10^9 L^–1
  Eosinophils: 0.18 (0.15) 10^9 L^–1
  Erythrocyte MCH: 30.8 (1.5) pg
  Erythrocyte MCH concentration: 345 (8) g L^–1
  Erythrocyte MCV: 89.4 (3.8) fL
  Erythrocytes: 4.81 (0.31) 10^12 L^–1
  Haematocrit: 0.43 (0.01) ratio
  Haemoglobin: 148 (6) g L^–1
  Leukocytes: 5.53 (1.12) 10^9 L^–1
  Lymphocytes: 1.40 (0.19) 10^9 L^–1
  Monocytes: 0.34 (0.09) 10^9 L^–1
  Neutrophils: 3.47 (0.79) 10^9 L^–1
  Platelets: 190 (23) 10^9 L^–1
  Reticulocytes: 68.5 (16.4) 10^9 L^–1
405 mg fasted, 48 h
  Basophils: 0.03 (0.01) 10^9 L^–1
  Eosinophils: 0.24 (0.26) 10^9 L^–1
  Erythrocyte MCH: 31.0 (1.6) pg
  Erythrocyte MCH concentration: 347 (7) g L^–1
  Erythrocyte MCV: 89.4 (3.7) fL
  Erythrocytes: 4.67 (0.22) 10^12 L^–1
  Haematocrit: 0.42 (0.01) ratio
  Haemoglobin: 145 (5) g L^–1
  Leukocytes: 5.53 (1.14) 10^9 L^–1
  Lymphocytes: 1.51 (0.30) 10^9 L^–1
  Monocytes: 0.40 (0.14) 10^9 L^–1
  Neutrophils: 3.22 (0.62) 10^9 L^–1
  Platelets: 187 (20) 10^9 L^–1
  Reticulocytes: 66.3 (20.0) 10^9 L^–1
405 mg fasted, follow up
  Basophils: 0.04 (0.01) 10^9 L^–1
  Eosinophils: 0.27 (0.27) 10^9 L^–1
  Erythrocyte MCH: 31.0 (1.1) pg
  Erythrocyte MCH concentration: 345 (5) g L^–1
  Erythrocyte MCV: 89.8 (3.6) fL
  Erythrocytes: 4.83 (0.35) 10^12 L^–1
  Haematocrit: 0.43 (0.02) ratio
  Haemoglobin: 149 (8) g L^–1
  Leukocytes: 5.84 (1.41) 10^9 L^–1
  Lymphocytes: 1.43 (0.19) 10^9 L^–1
  Monocytes: 0.40 (0.08) 10^9 L^–1
  Neutrophils: 3.54 (1.02) 10^9 L^–1
  Platelets: 205 (21) 10^9 L^–1
  Reticulocytes: 78.6 (19.4) 10^9 L^–1
